Results on two compounds are retold here after patent US20200278355A1, “CONJUGATED PROTEINS AND USES THEREOF” (THE SCRIPPS RESEARCH INSTITUTE, priority 2017, published 2020).

The subject of test [1] is protein targets of BPK-29 in NSCLC cells (H460). Put plainly: ABPP-SILAC competition of BPK-29yne labeling in H460 cells, proteome-wide. It counts as cell-based, human. The conditions noted are these: beyond targets mapped by isoTOP-ABPP. Here is the method: (§1) Isotopically labeled H460 cell lines were generated as described above. Light and heavy cells were treated with compounds (20 μM) or DMSO, respectively, for 3 h, followed by labeling with the BPK-29yne (5 μM) for 30 min. Cells were washed once ice-cold PBS and lysed in 1% Triton 100-X dissolved in PBS with protease inhibitors (Sigma) by sonication. Lysate was adjusted to 1.5 mg ml^−1 in 500 μL. Samples were conjugated by CuAAC to Biotin-PEG4-azide (5 μL of 10 mM stocks in DMSO, final concentration=100 μM). CuAAC “click” mix contained TCEP, TBTA ligand and CuSO4 as detailed for isoTOP-ABPP sample preparation. Samples were further processed as detailed in: isoTOP-ABPP streptavidin enrichment and isoTOP-ABPP trypsin TEV digestion with the following exception: after overnight incubation at 37° C. with trypsin, tryptic digests were separated from the beads with Micro Bio-Spin columns (Bio-Rad) by centrifugation (1,000×g, 1 min). Beads were rinsed once with water (200 μL) and combined with tryptic digests. […]
(§2) The MS2 spectra data were extracted and searched using RAW Convertor and ProLuCID algorithm as described in isoTOP-ABPP peptide and protein quantification. […] Ratios of heavy/light (DMSO/test compound) peaks were calculated using in-house CIMAGE software. […] The mean R values and standard deviation for multiple biological experiments were calculated from the average ratios from each replicate. […]

The test system of test [2] is CRY1, DEPDC1, and CPLX2 expression in KEAP1-WT H2009 cells. Put plainly: Gene expression changes (qPCR) in KEAP1-WT NSCLC cells. Format: cell-based, human.
Test [3] addresses T1, interactions of FLAG-tagged RBM45 or SNW1 with endogenous NR0B1 (Homo sapiens, UniProt P51843).
T1 construct: endogenous in cells; host or cells: KEAP1-null HEK293T cells stably expressing FLAG-RBM45 or FLAG-SNW1
T1 sequence (P51843 1-470): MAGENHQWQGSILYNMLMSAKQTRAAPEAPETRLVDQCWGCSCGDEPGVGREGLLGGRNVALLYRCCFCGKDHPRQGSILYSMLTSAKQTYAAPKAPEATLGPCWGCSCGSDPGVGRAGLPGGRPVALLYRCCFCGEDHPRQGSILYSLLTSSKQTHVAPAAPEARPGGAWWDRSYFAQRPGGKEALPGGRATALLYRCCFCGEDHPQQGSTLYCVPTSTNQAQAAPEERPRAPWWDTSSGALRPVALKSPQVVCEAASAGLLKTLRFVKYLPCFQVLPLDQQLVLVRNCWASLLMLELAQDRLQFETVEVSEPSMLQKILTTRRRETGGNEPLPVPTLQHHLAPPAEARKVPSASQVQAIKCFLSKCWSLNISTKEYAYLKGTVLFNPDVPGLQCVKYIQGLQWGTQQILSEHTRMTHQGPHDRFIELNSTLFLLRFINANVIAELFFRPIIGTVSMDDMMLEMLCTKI
Put plainly: NR0B1 protein interactions in compound-treated cells (FLAG immunoprecipitation, immunoblot). Format: cell-based. The conditions noted are these: for blockade of interactions of FLAG-tagged RBM45 or SNW1 with endogenous NR0B1: KEAP1-null HEK293T cells and KEAP1-mutant NSCLC cells; for blockade of interactions of FLAG-tagged RBM45 or SNW1 with endogenous NR0B1 / inhibition of NR0B1 interaction with FLAG-RBM45 or FLAG-SNW1: 3 h; for inhibition of NR0B1 interaction with FLAG-RBM45 or FLAG-SNW1: KEAP1-null HEK293T cells. The method, then:
Confluent 10 cm plates of indicated cell lines were rinsed once with warm PBS and incubated in serum/dye-free RPMI with indicated compounds or vehicle for 3 h at 37° C. Cells were washed once ice-cold PBS and snap frozen.
Cells were rinsed once with ice-cold PBS, and lysed by sonication in Triton IP buffer. Lysates were clarified by centrifugation at 16,000×g for 10 min. Samples were normalized to 1 mg ml^−1 and boiled following the addition of sample buffer. For FLAG- or HA-immunoprecipitations, FLAG or HA resins (30 μL, 50:50 slurry) were added to the pre-cleared lysates and incubated with rotation for 3 hours at 4° C. Following immunoprecipitation, the beads were washed once with IP buffer followed by 3 times with IP buffer containing 500 mM NaCl. Loading buffer (40 μL) was added to the immunoprecipitated proteins which were subsequently denatured by boiling. Proteins were resolved by SDS-PAGE, analyzed by immunoblotting and relative band intensities were quantified using ImageJ software.
Next it was asked whether BPK-26 and BPK-29 inhibited NR0B1 protein interactions in cells using two complementary systems. […] In both cell systems, BPK-26 and BPK-29, but not control compounds, blocked the interactions of FLAG-tagged RMB45 or SNW1 with endogenous NR0B1 (FIG. 6C and FIG. 12E-F).
(In general: A western blot detects proteins with antibodies after separation by electrophoresis.)

The target of another test is T2, PTGES2 (Homo sapiens, UniProt Q9H7Z7).
T2 construct: Isotopically labeled H460 cell lines were generated as described above; endogenous in cells; host or cells: H460 (SILAC-labelled)
T2 sequence (Q9H7Z7 whole entry): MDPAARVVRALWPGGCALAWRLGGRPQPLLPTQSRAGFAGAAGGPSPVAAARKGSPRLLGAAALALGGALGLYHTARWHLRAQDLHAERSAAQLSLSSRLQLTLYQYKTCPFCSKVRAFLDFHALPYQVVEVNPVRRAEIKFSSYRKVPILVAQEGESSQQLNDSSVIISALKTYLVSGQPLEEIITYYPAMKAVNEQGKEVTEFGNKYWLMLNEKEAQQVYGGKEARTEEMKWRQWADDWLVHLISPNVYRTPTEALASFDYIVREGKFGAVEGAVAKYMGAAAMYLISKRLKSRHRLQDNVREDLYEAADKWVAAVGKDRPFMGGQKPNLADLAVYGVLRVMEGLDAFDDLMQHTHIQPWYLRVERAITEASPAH
Put plainly: ABPP-SILAC BPK-29yne competition in H460 cells: PTGES2. Format: cell-based. The conditions noted are these: 20 μM. The method, then:
as §1, §2

In the next test the target is T3, TXNRD1 (Homo sapiens, UniProt Q16881).
T3 construct: endogenous in cells; host or cells: H460
T3 sequence (Q16881 whole entry): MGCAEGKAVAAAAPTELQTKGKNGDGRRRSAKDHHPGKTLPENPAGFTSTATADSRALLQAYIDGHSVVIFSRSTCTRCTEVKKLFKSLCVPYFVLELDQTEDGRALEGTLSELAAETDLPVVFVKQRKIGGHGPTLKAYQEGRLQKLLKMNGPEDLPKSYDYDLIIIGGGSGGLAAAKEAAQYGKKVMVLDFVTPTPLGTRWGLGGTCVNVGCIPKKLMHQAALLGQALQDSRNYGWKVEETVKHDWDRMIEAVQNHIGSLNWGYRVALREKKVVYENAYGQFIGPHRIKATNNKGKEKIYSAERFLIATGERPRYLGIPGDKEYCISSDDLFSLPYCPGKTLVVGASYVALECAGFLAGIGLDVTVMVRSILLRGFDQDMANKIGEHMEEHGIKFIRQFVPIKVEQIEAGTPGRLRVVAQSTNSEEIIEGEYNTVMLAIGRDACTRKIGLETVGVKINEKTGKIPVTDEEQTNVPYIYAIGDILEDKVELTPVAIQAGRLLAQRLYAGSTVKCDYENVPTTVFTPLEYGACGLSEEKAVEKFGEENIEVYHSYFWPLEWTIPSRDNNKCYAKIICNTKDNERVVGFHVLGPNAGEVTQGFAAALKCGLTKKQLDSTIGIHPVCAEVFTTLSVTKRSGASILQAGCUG
The experiment in a line: ABPP-SILAC BPK-29yne competition in H460 cells: TXNRD1. The conditions noted are these: 20 μM. It counts as cell-based. Here is the method:
as §1, §2

As to `O=C(c1ccc(N2CCOCC2)cc1)N1CCCC(N(Cc2ccccc2)C(=O)CCl)CC1` (stereo not drawn) [BPK-29, N-benzyl-2-chloro-N-(1-(4-morpholinobenzoyl)azepan-4-yl)acetamide], in test [1], the “further proteins engaged, found with the BPK-29yne probe” value was “seven”. Besides, the “gene expression changes (CRY1, DEPDC1, CPLX2)” value in test [2] is “not observed”. In addition, in test [3], the “blockade of interactions of FLAG-tagged RBM45 or SNW1 with endogenous NR0B1” value is on record as “blocked” and the “inhibition of NR0B1 interaction with FLAG-RBM45 or FLAG-SNW1” value was “inhibit”. For the same compound, in test [3] (in cells), the “relative potency for blockade of NR0B1-protein interactions” value was “better potency than BPK-26”. Also, the “BPK-29-competed BPK-29yne analysis” value at PTGES2 is given as “Yes (Competed defined as showing R value ≥ 2.5 at 20 μM of test compound)”. Also, the “BPK-29-competed BPK-29yne analysis” value on TXNRD1 was “Yes (Competed defined as showing R value ≥ 2.5 at 20 μM of test compound)”.
In the case of `O=C(CCl)N(Cc1cccc(Cl)c1F)c1ccc(Cl)nc1` [BPK-26, 2-chloro-N-(3-chloro-2-fluorobenzyl)-N-(6-chloropyridin-3-yl)acetamide], in test [3], the “blockade of interactions of FLAG-tagged RBM45 or SNW1 with endogenous NR0B1” value was “blocked” and the “inhibition of NR0B1 interaction with FLAG-RBM45 or FLAG-SNW1” value was “inhibit”.
